The results in this text go back to publication PMC3532720, “A Sugar Gustatory Receptor Identified from the Foregut of Cotton Bollworm Helicoverpa armigera” (Journal of Chemical Ecology, 2012).

The experiment concerns the target T1, HaGR9 (Helicoverpa armigera, UniProt L0C9V2).
T1 construct: gene GR9; native full-length receptor, 465 residues, untagged, cDNA from larval foregut, transiently expressed in Spodoptera frugiperda Sf9 cells, no co-receptor co-transfected
T1 sequence (L0C9V2 1-465): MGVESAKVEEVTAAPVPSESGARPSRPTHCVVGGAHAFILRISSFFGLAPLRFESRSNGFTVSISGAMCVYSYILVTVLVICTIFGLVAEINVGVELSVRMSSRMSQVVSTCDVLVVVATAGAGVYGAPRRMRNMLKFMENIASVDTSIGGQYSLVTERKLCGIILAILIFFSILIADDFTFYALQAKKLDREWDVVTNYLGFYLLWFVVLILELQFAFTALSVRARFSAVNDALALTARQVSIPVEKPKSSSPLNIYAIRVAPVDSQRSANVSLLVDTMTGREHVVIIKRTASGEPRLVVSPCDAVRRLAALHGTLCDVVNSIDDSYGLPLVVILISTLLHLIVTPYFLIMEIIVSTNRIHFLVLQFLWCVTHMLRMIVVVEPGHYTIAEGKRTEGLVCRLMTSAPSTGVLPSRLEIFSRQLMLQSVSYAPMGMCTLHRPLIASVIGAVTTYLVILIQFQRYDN
The experiment is described as follows: calcium imaging, transfected Sf9 cells. Type of experiment: cell-based. The following applies: agonist; dose range 5 to 50 mM; HBSS buffer; control-cell response subtracted; Sf9 cells have endogenous sugar responses.
Usually EC50 stands for the concentration that produces a half-maximal response. Take `OC[C@H]1O[C@H](O[C@H]2[C@H](O)[C@@H](O)C(O)O[C@@H]2CO)[C@H](O)[C@@H](O)[C@@H]1O` (stereo partly drawn) [D-maltose]: the EC50 stood at 16.5 ± 1.3 mM. Regarding `OC[C@H]1OC(O)[C@H](O)[C@@H](O)[C@H]1O` (stereo partly drawn) [D-galactose], the EC50 is 21.3 ± 1.1 mM. Consider `OCC1(O)OC[C@@H](O)[C@@H](O)[C@@H]1O` (stereo partly drawn) [D-fructose], for which the EC50 turned out to be 21.5 ± 1.1 mM.
